# From patent publication US20200268864A1, “CANCER VACCINE COMPOSITIONS AND METHODS FOR USING SAME TO TREAT CANCER” (Dana-Farber Cancer Institute, Inc., priority 2017, published 2020)
# “Also recorded” adds a separate entry of the source.
# Tests used:
# [1] = tested on: PP tumors (Pten−/−; Trp53−/−); assay: PP tumor growth after intratumoral injection of PBM or PP cells plus olaparib; assay type: in vivo, mouse; details: 10^6 cells IT on day 1, 5, 9; olaparib 50 mg/kg/day IP from day 1
# Description: All animal experiments described in this study were performed according to the animal protocols approved by the DFCI Institutional Animal Care and Use Committee. Pten^−/−; Trp53^−/− (termed PP) mammary epithelial tumor cells were derived from syngeneic FVB/N genetically engineered mouse model of breast tumors driven by concurrent loss of PTEN and P53 (K14-Cre/Pten^L/L, Trp53^L/L). 10^6 PP cells in 100 μl of 40% Matrigel® Matrix (Corning) in DMEM were injected into the mammary fat pad of FVB/N1 mice. When tumors were about 100-200 mm^3 in volume, three injections of 10^6 of Trp53^−/−; Brca1^−/−; c-Myc (termed PBM) ovarian surface epithelial tumor cells or PP cells were administered intraturnorally (IT) on day 1, 5, and 9, respectively. Mice were also administered 50 mg/kg/day of olaparib (AZD2281) in 10% DMSO via intraperitoneal injection (IP) from day 1. Olaparib was prepared by diluting 100 mg/ml stocks in DMSO with 10% of 2-hydroxyl-propyl-β-cyclodextrine (Sigma) in PBS. In another cohort of PP tumor, two doses of DMXAA (Sigma, 500 μg/dose) resuspended in 7.5% of NaHCO3 or vehicle control were injected IT over a one-week period. Tumor volume was calculated using the formula: V=0.52×length×width×width.
# PBM tumor-bearing mice = assay: Flow cytometry of tumor-infiltrating immune cells in PBM tumors; details: mouse, in vivo
# Description: Tumors were first mechanically disrupted by chopping, then chemically digested in collagenase buffer (8 mL DMEM, 0.1 mL 1M HEPES, 0.5 mL FBS, 0.2 mL Pen/Strep, 1 m, 10× collagenase/hyaluronidase (Stemcell Technologies), 0.2 mL of 1 mg/mL DNase I (Stemcell Technologies) at 37° C. for 45 min. Single-cell suspensions of spleen and lymph nodes were obtained by mashed through a 70 um strainer using the plunger of a 3 mL or 5 mL syringe. Single cells suspensions were treated with red blood lysis buffer (4 mL NH4Cl+1 mL PBS with 2% calf serum) and washed with FACS buffer. Single cells suspensions were incubated with LIVE/DEAD Fixable Aqua Dead Cell Stain (Life Technologies, Cat # L34965) for 30 min and then blocked with anti-CD16/32 (BioLegend, clone 93) for 20 min on ice. Samples were then incubated with appropriate antibodies for 30 min. on ice. The Foxp3 staining buffer set (eBioscience, Cat #00-5523-00) was applied for intracellular markers staining. For the intracellular cytokine analysis, cells were stimulated with Leukocyte Activation Cocktail (BD Biosciences, Cat #550583) at 37° C. for 5 hours prior to FACS staining. The following antibodies were used in the experiments and were purchased from BioLegend unless otherwise indicated: CD45 (clone 30-F11), TCRβ (clone H57-597), CD4 (clone RM4-5), CD8 (clone 53-6.7), CD44 (clone IM7), CD62L (MEL-14), CD25 (PC61), IFNγ (clone XMG1.2), TNFα(clone MP6-XT22), PD-1 (clone 29F.1A12), Tim-3 (clone RMT3-23), LAG-3 (clone C9B7W), CD11b (clone M1/70), CD11c (clone […]), F4/80 (clone BM8), Gr-1 (clone RB6-BC5), Ly-6C (clone HK1.4), Ly-6G (clone 1A8), MHCII (clone M5/114.15.2), CD80 (clone 16-10A1), CD86 (clone GL-1), MHC1 (clone KH114). FoxP3 (clone FJK-16 s; eBioscience), Phospho-IRF-3 (Ser396) (clone D6O1M, Cell signaling technology), Phospho-TBK1/NAK (Ser172) (clone D52C2, Cell signaling technology), and LIVE/DEAD® Fixable Aqua Dead Cell Stain Kit (Life Technologies Cat L34965). Flow cytometry was performed on an LSR II (BD Biosciences) or LSRFortessa™ HTS (BD Biosciences) at the DFCI flow cytometry core facility, and all the data were analyzed using FlowJo software.
# [2] = tested on: Brca1-proficient and Brca1-deficient tumor cells; assay: Measurement of IC50 value in tumor cells (MTS, 72 h); assay type: cell-based; details: three pairs of models; for gemcitabine except PPM and PBM cells
# Description: Tumor cells were seeded in 96-well plates at a density of 1000-3000/well and allowed to adhere overnight. Cells were then exposed to appropriate concentrations of therapeutic agents (or vehicle control) with continuous exposure for 72 h. Growth inhibition was measured by CellTiter Aqueous MTS reagent from Promega by comparing the absorbance at 490 nm of drug-treated cells to that of untreated controls set at 100%. 1C50 values were calculated using non-linear regression model (logarithmic inhibitor vs. normalized response-variable slope) in Graphpad Prism 7.
structure (smiles),measurement,setting,value
"O=C(c1cc(Cc2n[nH]c(=O)c3ccccc23)ccc1F)N1CCN(C(=O)C2CC2)CC1 [olaparib, Olaparib]",PP tumor growth,[1],suppressed the growth of PP tumors
same,"CD80, CD86 and MHC class II expression on tumor associated DCs",PBM tumor-bearing mice,increased levels
same,CD103+ DCs at the tumor site,PBM tumor-bearing mice,increased
same,IFNγ and TNFα production by intratumoral CD4+ and CD8+ T cells,PBM tumor-bearing mice,significantly increased the production
same,PD-1/TIM-3 and PD-1/Lag3 co-expression (exhausted state) on intratumoral CD8+ T cells,PBM tumor-bearing mice,reduced expression; also recorded: reduced the exhausted state
same,effector CD8+ T cells in malignant ascites of the peritoneal cavity,PBM tumor-bearing mice,Increase
same,frequency of intratumoral FoxP3+ Treg,PBM tumor-bearing mice,not changed
same,immune cell (CD45+) infiltration into tumor,PBM tumor-bearing mice,Increased
same,intratumoral MDSC cells (CD11b+Gr1+; gMDSC),PBM tumor-bearing mice,reduced
same,number of intratumoral CD4+ and CD8+ T cells,PBM tumor-bearing mice,significantly increased; also recorded: increased the number
same,intratumoral MDSC cells (CD11b+Gr1+; gMDSC),PBM tumor-bearing mice; listed as Olaparib,decrease
same,"IC50 values, Brca1-deficient lines in comparison to Brca1-proficient counterparts",[2],much more sensitive
